In patent US20120115955A1, “Methods for tumor treatment and adipogenesis differentiation” (Centro de Investigacion Principe Felipe, priority 2010, published 2012):
Entries after “also recorded” stand apart in the source; their conditions may differ.

Columns and labels:
MALME-3M cells = test: Nile-Red neutral lipid / LD quantification by flow cytometry (FL2); assay type: cell-based, human; details: 12 hours, vs DMSO control; for LD accumulation (Nile-RED): 100 μg/ml each fatty acid, except 10 μg/ml docosahexaenoic and arachidonic acid; for fold induction at 100 µg/mL: Homo sapiens, 100 μg/ml, read-out: generation of LDs, fold induction (Nile-RED FL2)
Method: FIG. 6. […] MALME-3M cells were cultured in the presence of 10 μg/ml of docosahexaenoic acid, 100 μg/ml of nervonic acid, 100 μg/ml of erucic acid, 10 μg/ml of arachidonic acid, 100 μg/ml of linolenic acid, 100 μg/ml of linoleic acid, 100 μg/ml of oleic acid, 100 μg/ml of palmitoleic acid, 100 μg/ml of elaidic acid, or 100 μg/ml petroselinic acid for 12 hours. Fatty acids were dissolved in DMSO; therefore the cells cultured with RPMI+10% FBS and treated with DMSO only were considered negative controls. The Nile-Red analysis was performed as described in the Material and Methods section. Quantification in the FL2 parameter was assessed by the FlowJo software. Fold induction was estimated by calculating the ratio between treated conditions and the untreated condition (control). The results are representative of three independent experiments.
(§1) Cells (10^5) were washed twice in PBS and then incubated with 25 μg/ml of Nile-Red (Invitrogen) in PBS (15 min, 4° C.). After incubation, cells were filtered through a 30 μm sieve (CellTrics, Partec). Fluorescent emission (525 nm) was registered in the FL2 channel by a Beckman Coulter Flow Cytometer (Cytomics™ FC 500). Data files were analyzed using the FlowJo flow cytometer analysis software.

[1] = tested on: HCCLs (MALME-3M, MCF-7, SK-OV-3, HUH-7); test: Flow cytometry FSC and SSC parameters of HCCLs; assay type: cell-based, human; details: mini-screen of unsaturated fatty acids associated with albumin; HUH-7, SK-OV-3, MCF-7, MALME-3M
HUH-7 cells = assay type: cell-based
Method: as §1

SMILES | LD accumulation (Nile-RED) (MALME-3M cells) | fold induction at 100 µg/mL (MALME-3M cells) | modifications in the forward and side scatter parameters [1] | LD accumulation by single fatty acid (HUH-7 cells)
CCCCCCCC/C=C\CCCCCCCCCCCC(=O)O [erucic acid, reference compound] | LD accumulation was induced | – | – | –
CCCCCCCCCCC/C=C\CCCCC(=O)O [petroselinic acid, cis-6-octadecenoic] | LD accumulation was induced | ≥ 6 | – | –
CCCCCCC=CCCCCCCCC(=O)O [palmitoleic acid, hexadec-9-enoic acid] | LD accumulation was induced | ≥ 6 | remarkable modifications in the forward and side scatter parameters | –
CCCCC/C=C\C/C=C\CCCCCCCC(=O)O [linoleic acid, cis, cis-9,12-octadecadienoic acid] | triggers LD accumulation; also recorded: LD accumulation was induced | ≥ 6 | remarkable modifications in the forward and side scatter parameters | triggers LD accumulation
CCCCCCCC/C=C\CCCCCCCC(=O)O [oleic acid, (9Z)-Octadec-9-enoic acid] | LD accumulation was induced | ≥ 6 | remarkable modifications in the forward and side scatter parameters | –
CCCCCCCC/C=C/CCCCCCCC(=O)O [elaidic acid, reference compound] | LD accumulation was induced | – | – | –
